Patent publication US20240294525A1, “COMPOUNDS AS GLP-1 RECEPTOR AGONISTS AND USES THEREOF” (CGENETECH (SUZHOU, CHINA) CO., LTD., priority 2021, published 2024)

Assays:
GLP-1R = GLP-1R (Homo sapiens, UniProt P43220); experiment: GLP-1R cAMP experiment (HTRF cAMP agonist detection); assay type: cell-based; conditions: GLP-1R-HEK293 cells
Procedure: The initial concentration was 500 nM, the compounds were diluted according to a 4-fold gradient in a total of 10 concentrations, and the diluent was dimethyl sulfoxide.
• 1) 100 nL of each compound was transferred to a OptiPlate 384-well plate by using an Echo liquid transfer system; and • 2) the 384-well plate was centrifuged at 1000 rpm for 5 s.
• 1) According to a conventional cell thawing method, a GLP-1R-HEK293 cell line was rapidly thawed in a 37° C. water bath; • 2) the cell suspension was transferred to a 15 mL centrifuge tube containing 10 mL of 1×HBSS solution; • 3) at room temperature, the tube was centrifuged at 1000 rpm for 5 min, to collect cells; 4) a supernatant was discarded carefully, and attention was paid to avoid sucking away the cells; • 5) the centrifuge tube was flicked gently, so that the cells were loosened, and 10 mL of 1×HBSS solution was added to resuspend the cells. The cells were blown and beaten up and down by using a sterile pipette, until the cells were blown and beaten to a single-cell state; • 6) the cells were counted by using a Vi-cell counter, to determine the cell concentration and determine the cell activity; • 7) GLP-1R-HEK293 cells were resuspended in a cAMP detection buffer solution (from the above cAMP detection kit), and the concentration was 2.0×10^5/mL; and 8) 10 μL of the GLP-1R-HEK293 cells was transferred into the OptiPlate 384-well plate. 2.4 HTRF cAMP Agonist Detection • 1) The 384-well plate was incubated at room temperature for 20 min, then a cAMP detection reagent (from the above cAMP detection kit) was added; • 2) an electric multi-channel pipette was used to add 10 μL of the cAMP detection reagent to each well; • 3) the 384-well plate was covered by using a TopSeal-A film, and incubated at room temperature for 60 min; and • 4) the TopSeal-A film was removed, and a signal on an Envision instrument was read.

[1] = Oral pharmacokinetics in mice; assay type: in vivo, C57 mice; conditions: 10 mg/kg
Procedure: Healthy male C57 mice (9 mice per compound, n=3), purchased from Shanghai Jihui Laboratory Animal Care Co., LTD, with an age of 6-8 weeks.
The mice were fasted overnight before oral administration, and drunk freely, and feeding was resumed after 4 h of the administration. According to the weight of the mice weighed before the administration, the administration dose was calculated. It was intragastrically administered, and the administration dose was 10 mg/kg. At 0.083 h, 0.25 h, 0.5 h, 1 h, 2 h, 4 h, 8 h, and 24 h after the administration to test animals, about 110 μL of whole blood were respectively collected from submandibular veins of the mice by a semi-continuous method, and placed in a test tube containing K2EDTA. The tube was placed on ice, and centrifuged within 30 min (2000 g, 5 min, 4° C.), plasma was collected, transferred to an appropriately labeled test tube, and frozen at −80° C. in a refrigerator.
A chromatographic column was Waters ACQUITY UPLC BEH C18 (2.1×50 mm, and 1.7 μm); mobile phase A: H2O-0.025% FA-1 mM NH4OAC, mobile phase B: ACN-0.025% FA-1 mM NH4OAC, flow rate: 0.60 mL/min, gradient elution program: start, 2% B, 0.2 min; 60% B, 0.7 min; 90% B, 1.50 min; 90% B, 2.0 min; 2% B, 2.01 min; 2.6 min, and stop; column temperature: 50° C.; and injection volume: 1 μL.
Mass spectrometry method: LC-MS/MS-49 (Triple Quad 6500+)(SCIEX, USA), the ion source was an ESI source, the detection mode was positive ion detection, and the scanning mode was a multi-reaction monitoring (MRM) mode, m/z: 446.20/321.10 Da (Glipizide, internal standard).
10 μL of a plasma sample was taken and 200 μL of an internal standard working solution (Glipizide, 50 ng/mL) was added, vortex was performed for 1 min, then the mixture was centrifuged at 5800 rpm for 10 min. 70 μL of a supernatant was transferred to a 96-well plate, and 1 μL of the supernatant was taken and injected into LC-MS/MS for analysis.
Pharmacokinetic (PK) parameters were calculated by using Phoenix WinNonlin 7.0; and the oral pharmacokinetic parameters of the mice, including AUC, Cmax, Tmax, T1/2 and the like, were estimated by using a non-compartmental model. […] PGP-46 T2

[2] = test system: hGLP-1R transgenic mouse B-hGLP-1R; experiment: Mouse intraperitoneal glucose tolerance test (IPGTT); assay type: in vivo; conditions: hGLP-1R mice, 10 mg/kg oral gavage
From the text: Specific steps were as follows: • 1) After the arrival of experimental animals (hGLP-1R transgenic mouse B-hGLP-1R, SPF-grade mouse, male, 6-8 weeks, and purchased from Baiosaitu Jiangsu Gene Biotechnology Co., Ltd.), all experimental animals were divided into one animal per cage and fed and adapted for 7 days before the start of the experiment (during which the health status of the animals was observed). At least 3 days before the start of IPGTT, the animals were weighed and solvent (0.5% methylcellulose solution) intragastric administration and intraperitoneal saline injection were performed. • 2) On the day before the experiment, the experimental animals were fasted overnight (14 h, 19:00-9:00), and at 9:00 am, the experimental animals were weighed and blood was collected from tail tips to measure the blood glucose.

[3] = test system: patients with Type-2 diabetes mellitus; conditions: first-phase clinical; cited from earlier work

GLP-1R, sequence (P43220 24-463): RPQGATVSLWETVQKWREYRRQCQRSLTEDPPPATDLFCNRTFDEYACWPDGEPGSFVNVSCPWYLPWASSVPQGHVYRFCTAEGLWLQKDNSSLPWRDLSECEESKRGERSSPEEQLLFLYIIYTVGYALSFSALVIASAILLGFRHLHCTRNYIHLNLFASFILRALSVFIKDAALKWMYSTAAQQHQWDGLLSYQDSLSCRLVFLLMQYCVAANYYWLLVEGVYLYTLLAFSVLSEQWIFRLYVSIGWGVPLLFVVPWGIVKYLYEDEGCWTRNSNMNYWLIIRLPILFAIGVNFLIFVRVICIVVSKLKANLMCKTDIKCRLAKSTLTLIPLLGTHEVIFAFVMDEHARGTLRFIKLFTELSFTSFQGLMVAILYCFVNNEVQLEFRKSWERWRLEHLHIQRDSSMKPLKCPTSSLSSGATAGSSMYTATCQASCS

| Structure (SMILES) | EC50 (GLP-1R) [nM] | AUC(0-inf) ([1]; male, C57, mouse, in vivo, po) [ng·h/mL] | AUC(0-t) ([1]; male, C57, mouse, in vivo, po) [ng·h/mL] | Cmax ([1]; male, C57, mouse, in vivo, po) [ng/mL] | MRT inf ([1]; male, C57, mouse, in vivo, po) [h] | MRT last ([1]; male, C57, mouse, in vivo, po) [h] | Tmax ([1]; male, C57, mouse, in vivo, po) [h] | half-life ([1]; male, C57, mouse, in vivo, po) [h] | further results |
| --- | --- | --- | --- | --- | --- | --- | --- | --- | --- |
| CC#Cc1ccc(COc2cccc(N3CCN(Cc4nc5ccc(C(=O)O)cc5n4C[C@@H]4CCO4)CC3)n2)c(F)c1 [Compound 3] | 0.8 |  |  |  |  |  |  |  |  |
| O=C(O)c1ccc2nc(CN3CCN(c4cccc(OCc5ccc(C#CC6CC6)cc5F)n4)CC3)n(C[C@@H]3CCO3)c2c1 [Compound 4] | 1.75 |  |  |  |  |  |  |  |  |
| O=C(O)c1ccc2nc(CN3CCN(c4cccc(OCc5ccc(C#CCO)cc5F)n4)CC3)n(C[C@@H]3CCO3)c2c1 [Compound 5] | 5.2 |  |  |  |  |  |  |  |  |
| C#Cc1ccc(COc2cccc(N3CCN(Cc4nc5ccc(C(=O)O)cc5n4C[C@@H]4CCO4)CC3)n2)cc1 [Compound 7] | 0.39 | 12500 | 12500 | 6170 | 2 | 2 | 0.5 | 3.1 |  |
| C#Cc1ccc(COc2cccc(N3CCN(Cc4nc5ccc(C(=O)O)cc5n4C[C@@H]4CCO4)CC3)n2)c(Cl)c1 [Compound 8] | 0.1 | 10900 | 10900 | 4370 | 2.5 | 2.5 | 1 | 2.3 |  |
| C#Cc1ccc(COc2cccc(N3CCN(Cc4nc5ccc(C(=O)O)nc5n4C[C@@H]4CCO4)CC3)n2)c(F)c1 [Compound 9] | 0.15 | 3920 | 3880 | 2620 | 1.4 | 1.3 | 0.5 | 1.4 |  |
| C#Cc1ccc(COc2nc(N3CCN(Cc4nc5ccc(C(=O)O)cc5n4C[C@@H]4CCO4)CC3)ccc2F)cc1 [Compound 15] | 0.85 |  |  |  |  |  |  |  |  |
| C#Cc1ccc(COc2nc(N3CCN(Cc4nc5ccc(C(=O)O)nc5n4C[C@@H]4CCO4)CC3)ccc2F)cc1 [Compound 16] | 1.07 |  |  |  |  |  |  |  |  |
| C#Cc1ccc(COc2nc(N3CCN(Cc4nc5ccc(C(=O)O)nc5n4C[C@@H]4CCO4)CC3)ccc2F)c(F)c1 [Compound 17] | 0.56 | 5140 | 5130 | 2830 | 1.9 | 1.9 | 0.25 | 3 |  |
| C#Cc1ccc(COc2nc(N3CCN(Cc4nc5ccc(C(=O)O)nc5n4C[C@@H]4CCO4)CC3)ccc2F)c(Cl)c1 [Compound 18] | 0.37 | 4140 | 4130 | 1470 | 3.1 | 3.1 | 0.5 | 2.6 |  |
| C#Cc1ccc(COc2nc(N3CCN(Cc4nc5ccc(C(=O)O)cc5n4C[C@@H]4CCO4)CC3)ccc2F)c(Cl)c1 [Compound 19] | 0.51 | 10300 | 10300 | 3300 | 2.7 | 2.7 | 0.5 | 2.4 |  |
| N#Cc1ccc(COc2cccc(C3CCN(Cc4nc5ccc(C(=O)O)cc5n4C[C@@H]4CCO4)CC3)n2)c(F)c1 [PF-06882961, reference compound] |  |  |  |  |  |  |  |  | AUC(0-t) ([1]; male C57 mice, intragastric): 3427.0 ng·h/mL; AUC(0-∞) ([1]; male C57 mice, intragastric): 3444.0 ng·h/mL; Cmax ([1]; male C57 mice, intragastric): 4967.0 ng/mL; MRT(0-t) ([1]; male C57 mice, intragastric): 0.8 h; MRT(0-∞) ([1]; male C57 mice, intragastric): 0.8 h; T1/2 ([1]; male C57 mice, intragastric): 1.4 h; Tmax ([1]; male C57 mice, intragastric): 0.25 h; effects on blood glucose and weight [3]: significant effects on reducing blood glucose and weight |

More lines, main results first:

| EC50 (GLP-1R) [nM] | AUC(0-inf) ([1]; male, C57, mouse, in vivo, po) [ng·h/mL] | AUC(0-t) ([1]; male, C57, mouse, in vivo, po) [ng·h/mL] | Cmax ([1]; male, C57, mouse, in vivo, po) [ng/mL] | MRT inf ([1]; male, C57, mouse, in vivo, po) [h] | MRT last ([1]; male, C57, mouse, in vivo, po) [h] | Tmax ([1]; male, C57, mouse, in vivo, po) [h] | half-life ([1]; male, C57, mouse, in vivo, po) [h] | Structure (SMILES) | further results |
| --- | --- | --- | --- | --- | --- | --- | --- | --- | --- |
| 0.82 | 3560 | 3310 | 1700 | 1.8 | 1.5 | 0.5 | 2.2 | C#Cc1ccc(COc2cccc(C3CCN(Cc4nc5ccc(C(=O)O)cc5n4C[C@@H]4CCO4)CC3)n2)c(F)c1 [Compound 1] |  |
| 0.96 | 7010 | 6930 | 3170 | 3 | 2.8 | 0.5 | 2.6 | C#Cc1ccc(COc2cccc(N3CCN(Cc4nc5ccc(C(=O)O)cc5n4C[C@@H]4CCO4)CC3)n2)c(F)c1 [Compound 2] | blood glucose reducing effect ([2]; 2 g/kg glucose i.p.): significant blood glucose reducing effect; overall blood glucose-reducing effect compared with PF-06882961 ([2]; IPGTT): better than PF-06882961 |
| 0.1 | 9800 | 9780 | 4350 | 2.6 | 2.5 | 0.5 | 2.7 | C#Cc1ccc(COc2nc(N3CCN(Cc4nc5ccc(C(=O)O)cc5n4C[C@@H]4CCO4)CC3)ccc2F)c(F)c1 [Compound 10] |  |
| 0.14 | 2280 | 2270 | 2030 | 1.9 | 1.8 | 0.5 | 3.9 | C#Cc1ccc(COc2cccc(C3CCN(Cc4nc5c(F)cc(C(=O)O)cc5n4C[C@@H]4CCO4)CC3)n2)c(F)c1 [Compound 11] |  |
| 0.41 |  |  |  |  |  |  |  | C#Cc1ccc(COc2cccc(N3CCN(Cc4nc5c(F)cc(C(=O)O)cc5n4C[C@@H]4CCO4)CC3)n2)c(Cl)c1 [Compound 12] |  |
| 0.59 |  |  |  |  |  |  |  | C#Cc1ccc(COc2nc(C3CCN(Cc4nc5ccc(C(=O)O)nc5n4C[C@@H]4CCO4)CC3)ccc2F)c(F)c1 [Compound 20] |  |
